In patent publication US20140186329A1, “POLYPHENOL ANALOGS TO TREAT ISCHEMIA” (priority 2011, published 2014):

What was measured:
Nrf2 = Nrf2 induction, SDS-PAGE and Western blotting of nuclear extracts; format: cell-based; details: cells treated 1, 2 and 4 hr
Method: For immunoblotting of Nrf2, nuclear extracts were prepared as described (Schreiber, et al., Nucleic Acids Res. (1989) 17 (15), 6419) from untreated cells and cells treated with the Fisetin derivatives for 1, 2 and 4 hr. Fisetin was used as a positive control. […] Protein concentrations were determined using the BCA protein assay (Pierce). Equal amounts of protein were solubilized in 2.5×SDS-sample buffer, separated on 10% SDS-polyacrylamide gels and transferred to nitrocellulose. Equal loading and transfer of the samples was confirmed by staining the nitrocellulose with Ponceau-S. Transfers were blocked for 1 hr at room temperature with 5% nonfat milk in TBS/0.1% Tween 20 and then incubated overnight at 4° C. in the primary antibody diluted in 5% BSA in TBS/0.05% Tween 20. The primary antibodies used were: anti-Nrf2 (#SC13032; 1/1000) from Santa Cruz Biotechnology (Santa Cruz, Calif.) and anti-β-actin (#5125; 1/20,000) from Cell Signaling (Beverly, Mass.). The transfers were rinsed with TBS/0.05% Tween 20 and incubated for 1 hr at room temperature in horseradish peroxidase-goat anti-rabbit or goat anti-mouse (Biorad, Hercules, Calif.) diluted 1/5000 in 5% nonfat milk in TBS/0.1% Tween 20. The immunoblots were developed with the Super Signal reagent (Pierce, Rockford, Ill.).
The transcription factor Nrf2 plays a key role in regulating GSH metabolism in many different cell types (Lewerenz, et al., Antioxidant & Redox Signaling. (2011) 14, 1449-1465). We have shown that Fisetin can induce Nrf2 and this correlates with its ability to enhance GSH levels (Maher, P. et al., Genes. Nutr. (2009) September 10). To determine if the derivatives which can maintain GSH levels do so by increasing Nrf2 we looked at Nrf2 levels in the nuclei of derivative-treated cells using Fisetin as a positive control (Table 4). […] This was particularly true for the derivatives based on the quinoline scaffold where none of them increased Nrf2 despite being very effective at maintaining GSH levels.

PC12 cells = assay: PC12 cell differentiation (neurite outgrowth); format: cell-based; details: N2 medium, derivative 1-10 μM, 24 hr, visual inspection
Procedure, shortened: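 PC12 cells in N2 medium were exposed to derivatives (1-10 μM) for 24 hr, with Fisetin (10 μM) as positive control. Cells counted as positive if bearing ≥1 neurite longer than one cell body diameter; 100 cells scored in each of three fields per treatment.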

HT22 cells = assay: Maintenance of total GSH in the presence of glutamate; format: cell-based, mouse; details: derivative 1-10 μM, 5 mM glutamate, 24 hr
Procedure, shortened: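 HT22 cells treated 24 hr with each derivative at 1-10 μM plus 5 mM glutamate, then extracts analysed for total GSH by chemical assay. Fisetin (10 μM) served as positive control.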

Compound | Nrf2 (ability to induce the transcription factor Nrf2) (Nrf2) | PC12 diff'n (ability to induce PC12 cell differentiation) (PC12 cells) | GSH (ability to maintain GSH) (HT22 cells)
Oc1ccc(-c2cc(OC3CCCC3)c3ccccc3n2)cc1O [CMS-121, 4-cyclopentyloxy-2-(3,4-dihydroxyphenyl) quinoline] | No | yes | yes
O=c1c(O)c(-c2ccc(O)c(O)c2)oc2cc(O)ccc12 [Fisetin, 3,7,3′,4′-Tetrahydroxyflavone, reference compound] | Yes | yes | yes
COc1cc(-c2oc3cc(C)c(C)cc3c(=O)c2O)ccc1O [CMS-069, 3-hydroxy-2-(4-hydroxy-3-methoxyphenyl)-6,7-dimethyl-4H-chromen-4-one] |  | no | no
CN(C)c1ccc(-c2oc3c(ccc4ccccc43)c(=O)c2O)cc1 [CMS-118, 2-(4-(dimethylamino)phenyl)-3-hydroxy-4H-benzo[h]chromen-4-one] | No | no | yes
O=c1c(O)c(-c2ccc(N3CCCC3)c(O)c2)oc2c1ccc1ccccc12 [CMS-140, 3-hydroxy-2-(3-hydroxy-4-(pyrrolidin-1-yl)phenyl)-4H-benzo[h]chromen-4-one] | No | Yes | Yes
Cc1cc2oc(-c3ccc(N(C)C)cc3)c(O)c(=O)c2cc1C [CMS-117, 2-(4-(dimethylamino)phenyl)-3-hydroxy-6,7-dimethyl-4H-chromen-4-one] | No | no | yes
Cc1cc(O)c(C(=O)/C=C/c2ccc(O)c(O)c2)cc1C [CMS-011, (E)-3-(3,4-dihydroxyphenyl)-1-(2-hydroxy-4,5-dimethylphenyl)prop-2-en-1-one] | Yes | yes | yes
O=c1c(O)c(-c2ccc(O)c(O)c2)oc2ccccc12 [CMS-04P, reference compound] | Yes | yes | yes
O=C(/C=C/c1ccc(O)c(O)c1)c1ccc2ccccc2c1O [CMS-034, (E)-3-(3,4-dihydroxyphenyl)-1-(1-hydroxynaphthalen-2-yl)prop-2-en-1-one] | Yes | yes | yes
CCOc1cc(-c2ccc(O)c(O)c2)nc2ccccc12 [CMS-023, 4-ethoxy-2-(3,4-dihydroxyphenyl) quinoline] | No | yes | yes
CC(C)Oc1cc(-c2ccc(O)c(O)c2)nc2ccccc12 [CMS-024, 4-isopropoxy-2-(3,4-dihydroxyphenyl) quinoline] | No | yes | yes
COc1ccc(/C=C/C(=O)c2cc(C)c(C)cc2O)cc1OCc1ccccc1 [CMS-086, (E)-3-(3-(benzyloxy)-4-methoxyphenyl)-1-(2-hydroxy-4,5-dimethylphenyl)prop-2-en-1-one] | Yes | yes | yes
O=c1c(O)c(-c2ccc(O)c(O)c2)oc2c1ccc1ccccc12 [CMS-040, 2-(3,4-dihydroxyphenyl)-3-hydroxy-4H-benzo[h]chromen-4-one] |  | yes | no
Cc1cc2oc(-c3ccc(N4CCCC4)cc3)c(O)c(=O)c2cc1C [CMS-122, 3-hydroxy-6,7-dimethyl-2-(4-(pyrrolidin-1-yl)phenyl)-4H-chromen-4-one] | No | yes | yes
COc1cc(-c2ccc(O)c(O)c2)nc2ccccc12 [CMS-007, 4-methoxy-2-(3,4-dihydroxyphenyl) quinoline] | No | no | yes
COc1cc(-c2oc3cc(C)c(C)cc3c(=O)c2O)ccc1OCc1ccccc1 [CMS-059, 2-(4-(benzyloxy)-3-methoxyphenyl)-3-hydroxy-6,7-dimethyl-4H-chromen-4-one] |  | no | no
